Results reported in patent publication US11053204B2, “Pyrimidinyloxy benzene derivatives as herbicides” (FMC Corporation, priority 2015, dated 2021).

Columns and labels:
Type in all cases: in vivo
[1] = tested on: barnyardgrass (Echinochloa crus-galli); experiment: Test C postemergence, plant response rating; conditions: for Plant response rating, Barnyardgrass: scale 0 to 100; for Barnyardgrass plant response rating: scale 0 to 100 (0 no effect, 100 complete control)
Summary of the method: (§1)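 Preemergence: seeds sown in loam–sand blend or silt loam and sprayed with test chemicals in a non-phytotoxic surfactant-containing solvent. Postemergence: potted plants at 2–18 cm (1–4-leaf stage) sprayed with the same formulation. After 13–15 d in greenhouse, visual rating versus controls on 0 (no effect) to 100 (complete control) scale.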

[2] = tested on: wheat (winter wheat, Triticum aestivum); experiment: Test C postemergence, plant response rating
Summary of the method: as §1

[3] = tested on: oilseed rape (Brassica napus); experiment: Test C postemergence, plant response rating; conditions: for Oilseed Rape plant response rating: scale 0 to 100 (0 no effect, 100 complete control)
Summary of the method: as §1

[4] = tested on: velvetleaf (Abutilon theophrasti); experiment: Test C postemergence, plant response rating
Summary of the method: as §1

[5] = tested on: foxtail, giant (giant foxtail, Setaria faberii); experiment: Test C postemergence, plant response rating; conditions: for Foxtail, Giant plant response rating: scale 0 to 100 (0 no effect, 100 complete control)
Summary of the method: as §1

[6] = tested on: morningglory (Ipomoea coccinea); experiment: Test C postemergence, plant response rating; conditions: for Morningglory plant response rating: scale 0 to 100 (0 no effect, 100 complete control)
Summary of the method: as §1

[7] = tested on: blackgrass (Alopecurus myosuroides); experiment: Test C postemergence, plant response rating; conditions: for Plant response rating, Blackgrass: scale 0 to 100; for Blackgrass plant response rating: scale 0 to 100 (0 no effect, 100 complete control)
Summary of the method: as §1

[8] = tested on: nutsedge, yellow (yellow nutsedge, Cyperus esculentus); experiment: Test C preemergence, plant response rating; conditions: Preemergence
Summary of the method: as §1

[9] = tested on: soybean (Glycine max); experiment: Test C preemergence, plant response rating; conditions: Preemergence
Summary of the method: as §1

[10] = tested on: ryegrass, Italian (Italian ryegrass, Lolium multiflorum); experiment: Test C preemergence, plant response rating; conditions: Preemergence
Summary of the method: as §1

[11] = tested on: crabgrass, large (large crabgrass, Digitaria sanguinalis); experiment: Test C preemergence, plant response rating; conditions: Preemergence
Summary of the method: as §1

[12] = tested on: corn (Zea mays); experiment: Test C preemergence, plant response rating; conditions: Preemergence
Summary of the method: as §1

[13] = tested on: wheat (winter wheat, Triticum aestivum); experiment: Test C preemergence, plant response rating; conditions: Preemergence
Summary of the method: as §1

[14] = tested on: oilseed rape (Brassica napus); experiment: Test C preemergence, plant response rating; conditions: Preemergence
Summary of the method: as §1

[15] = tested on: waterhemp (common waterhemp, Amaranthus rudis); experiment: Test C preemergence, plant response rating; conditions: Preemergence
Summary of the method: as §1

[16] = tested on: velvetleaf (Abutilon theophrasti); experiment: Test C preemergence, plant response rating; conditions: Preemergence
Summary of the method: as §1

[17] = tested on: foxtail, giant (giant foxtail, Setaria faberii); experiment: Test C preemergence, plant response rating; conditions: Preemergence
Summary of the method: as §1

[18] = tested on: lambsquarters (Chenopodium album); experiment: Test C preemergence, plant response rating; conditions: Preemergence
Summary of the method: as §1

[19] = tested on: morningglory (Ipomoea coccinea); experiment: Test C preemergence, plant response rating; conditions: Preemergence
Summary of the method: as §1

[20] = tested on: ragweed (common ragweed, Ambrosia elatior); experiment: Test C preemergence, plant response rating; conditions: Preemergence
Summary of the method: as §1

[21] = tested on: blackgrass (Alopecurus myosuroides); experiment: Test C preemergence, plant response rating; conditions: Preemergence
Summary of the method: as §1

[22] = 125 g ai/ha, scale 0 to 100 (0 no effect, 100 complete control)

O=C(CCC(F)(F)F)c1c(Br)cccc1Oc1ncc(Cl)cn1 [Compound 92]
Plant response rating, Barnyardgrass ([1]; 16 g ai/ha): 10 | Plant response rating, Barnyardgrass ([1]; 31 g ai/ha): 10 | Barnyardgrass plant response rating ([1]; 62 g ai/ha): 15 | Barnyardgrass plant response rating ([1]; 125 g ai/ha): 20 | Plant response rating, Wheat ([2]; 16 g ai/ha, scale of 0 to 100): 0 | Plant response rating, Wheat ([2]; 31 g ai/ha, scale 0 to 100): 0 | Wheat plant response rating [2, 22]: 10 | Plant response rating, Oilseed Rape ([3]; 16 g ai/ha, scale of 0 to 100): 5 | Plant response rating, Oilseed Rape ([3]; 31 g ai/ha, scale 0 to 100): 50 | Oilseed Rape plant response rating ([3]; 62 g ai/ha): 50 | Oilseed Rape plant response rating ([3]; 125 g ai/ha): 70 | Plant response rating, Velvetleaf ([4]; 16 g ai/ha, scale of 0 to 100): 35 | Plant response rating, Velvetleaf ([4]; 31 g ai/ha, scale 0 to 100): 50 | Velvetleaf plant response rating [4, 22]: 85 | Plant response rating, Foxtail, Giant ([5]; 16 g ai/ha, scale of 0 to 100): 10 | Plant response rating, Foxtail, Giant ([5]; 31 g ai/ha, scale 0 to 100): 20 | Foxtail, Giant plant response rating ([5]; 62 g ai/ha): 25 | Foxtail, Giant plant response rating ([5]; 125 g ai/ha): 50 | Plant response rating, Morningglory ([6]; 16 g ai/ha, scale of 0 to 100): 20 | Plant response rating, Morningglory ([6]; 31 g ai/ha, scale 0 to 100): 85 | Morningglory plant response rating ([6]; 62 g ai/ha): 65 | Morningglory plant response rating ([6]; 125 g ai/ha): 85 | Plant response rating, Blackgrass ([7]; 16 g ai/ha): 5 | Plant response rating, Blackgrass ([7]; 31 g ai/ha): 10 | Blackgrass plant response rating ([7]; 62 g ai/ha): 5 | Blackgrass plant response rating ([7]; 125 g ai/ha): 20 | Plant response rating, Nutsedge, Yellow ([8]; 125 g ai/ha, scale of 0 to 100): 50 | Plant response rating, Nutsedge, Yellow ([8]; 31 g ai/ha, scale 0 to 100): 5 | Plant response rating, Nutsedge, Yellow ([8]; 62 g ai/ha, scale 0 to 100): 5 | Plant response rating, Soybean ([9]; 125 g ai/ha, scale of 0 to 100): 60 | Plant response rating, Soybean ([9]; 31 g ai/ha, scale 0 to 100): 40 | Plant response rating, Soybean ([9]; 62 g ai/ha, scale 0 to 100): 70 | Plant response rating, Ryegrass, Italian ([10]; 125 g ai/ha, scale of 0 to 100): 95 | Plant response rating, Ryegrass, Italian ([10]; 31 g ai/ha, scale 0 to 100): 5 | Plant response rating, Ryegrass, Italian ([10]; 62 g ai/ha, scale 0 to 100): 55 | Plant response rating, Crabgrass, Large ([11]; 125 g ai/ha, scale of 0 to 100): 100 | Plant response rating, Crabgrass, Large ([11]; 16 g ai/ha, scale 0 to 100): 100 | Plant response rating, Crabgrass, Large ([11]; 31 g ai/ha, scale 0 to 100): 100 | Plant response rating, Crabgrass, Large ([11]; 62 g ai/ha, scale 0 to 100): 100 | Plant response rating, Corn ([12]; 125 g ai/ha, scale of 0 to 100): 40 | Plant response rating, Corn ([12]; 16 g ai/ha, scale 0 to 100): 0 | Plant response rating, Corn ([12]; 31 g ai/ha, scale 0 to 100): 15 | Plant response rating, Corn ([12]; 62 g ai/ha, scale 0 to 100): 35 | Plant response rating, Wheat ([13]; 125 g ai/ha, scale of 0 to 100): 20 | Plant response rating, Wheat ([13]; 31 g ai/ha, scale 0 to 100): 0 | Plant response rating, Wheat ([13]; 62 g ai/ha, scale 0 to 100): 0 | Plant response rating, Oilseed Rape ([14]; 125 g ai/ha, scale of 0 to 100): 100 | Plant response rating, Oilseed Rape ([14]; 31 g ai/ha, scale 0 to 100): 100 | Plant response rating, Oilseed Rape ([14]; 62 g ai/ha, scale 0 to 100): 100 | Plant response rating, Waterhemp ([15]; 125 g ai/ha, scale of 0 to 100): 100 | Plant response rating, Waterhemp ([15]; 31 g ai/ha, scale 0 to 100): 100 | Plant response rating, Waterhemp ([15]; 62 g ai/ha, scale 0 to 100): 100 | Plant response rating, Velvetleaf ([16]; 125 g ai/ha, scale of 0 to 100): 100 | Plant response rating, Velvetleaf ([16]; 31 g ai/ha, scale 0 to 100): 75 | Plant response rating, Velvetleaf ([16]; 62 g ai/ha, scale 0 to 100): 100 | Plant response rating, Foxtail, Giant ([17]; 125 g ai/ha, scale of 0 to 100): 100 | Plant response rating, Foxtail, Giant ([17]; 31 g ai/ha, scale 0 to 100): 100 | Plant response rating, Foxtail, Giant ([17]; 62 g ai/ha, scale 0 to 100): 100 | Plant response rating, Lambsquarters ([18]; 125 g ai/ha, scale of 0 to 100): 100 | Plant response rating, Lambsquarters ([18]; 31 g ai/ha, scale 0 to 100): 100 | Plant response rating, Lambsquarters ([18]; 62 g ai/ha, scale 0 to 100): 100 | Plant response rating, Morningglory ([19]; 125 g ai/ha, scale of 0 to 100): 70 | Plant response rating, Morningglory ([19]; 31 g ai/ha, scale 0 to 100): 40 | Plant response rating, Morningglory ([19]; 62 g ai/ha, scale 0 to 100): 60 | Plant response rating, Ragweed ([20]; 125 g ai/ha, scale of 0 to 100): 60 | Plant response rating, Ragweed ([20]; 31 g ai/ha, scale 0 to 100): 55 | Plant response rating, Ragweed ([20]; 62 g ai/ha, scale 0 to 100): 60 | Plant response rating, Blackgrass ([21]; 125 g ai/ha, scale of 0 to 100): 100 | Plant response rating, Blackgrass ([21]; 16 g ai/ha, scale 0 to 100): 45 | Plant response rating, Blackgrass ([21]; 31 g ai/ha, scale 0 to 100): 80 | Plant response rating, Blackgrass ([21]; 62 g ai/ha, scale 0 to 100): 100
